Reference: US8569344B2, “N-piperidinyl acetamide derivatives as calcium channel blockers” (Zalicus Pharmaceuticals Ltd., priority 2008, dated 2013)

Experiments:
[1] = target: T1, human α1G T-type channels (Homo sapiens, UniProt O43497); assay: T-type calcium channel block, whole cell patch clamp in HEK cells (α1G); type: cell-based; conditions: HEK cells, patch clamp, mainly non-inactivated protocol; values above 10 μM shown as 10 μM, below 0.30 μM shown as 0.30 μM; read-out: T-type Calcium Channel Block α1G IC50
T1 construct: expressed in transfected cells; host or cells: HEK 293

[2] = target: T2, human α1H T-type channels (Homo sapiens, UniProt O95180); assay: T-type calcium channel block, whole cell patch clamp in HEK cells (α1H); type: cell-based; conditions: HEK cells, patch clamp, mainly non-inactivated protocol; values above 10 μM shown as 10 μM; read-out: T-type Calcium Channel Block α1H IC50
T2 construct: expressed in transfected cells; host or cells: HEK 293
T2 sequence (O95180 whole entry): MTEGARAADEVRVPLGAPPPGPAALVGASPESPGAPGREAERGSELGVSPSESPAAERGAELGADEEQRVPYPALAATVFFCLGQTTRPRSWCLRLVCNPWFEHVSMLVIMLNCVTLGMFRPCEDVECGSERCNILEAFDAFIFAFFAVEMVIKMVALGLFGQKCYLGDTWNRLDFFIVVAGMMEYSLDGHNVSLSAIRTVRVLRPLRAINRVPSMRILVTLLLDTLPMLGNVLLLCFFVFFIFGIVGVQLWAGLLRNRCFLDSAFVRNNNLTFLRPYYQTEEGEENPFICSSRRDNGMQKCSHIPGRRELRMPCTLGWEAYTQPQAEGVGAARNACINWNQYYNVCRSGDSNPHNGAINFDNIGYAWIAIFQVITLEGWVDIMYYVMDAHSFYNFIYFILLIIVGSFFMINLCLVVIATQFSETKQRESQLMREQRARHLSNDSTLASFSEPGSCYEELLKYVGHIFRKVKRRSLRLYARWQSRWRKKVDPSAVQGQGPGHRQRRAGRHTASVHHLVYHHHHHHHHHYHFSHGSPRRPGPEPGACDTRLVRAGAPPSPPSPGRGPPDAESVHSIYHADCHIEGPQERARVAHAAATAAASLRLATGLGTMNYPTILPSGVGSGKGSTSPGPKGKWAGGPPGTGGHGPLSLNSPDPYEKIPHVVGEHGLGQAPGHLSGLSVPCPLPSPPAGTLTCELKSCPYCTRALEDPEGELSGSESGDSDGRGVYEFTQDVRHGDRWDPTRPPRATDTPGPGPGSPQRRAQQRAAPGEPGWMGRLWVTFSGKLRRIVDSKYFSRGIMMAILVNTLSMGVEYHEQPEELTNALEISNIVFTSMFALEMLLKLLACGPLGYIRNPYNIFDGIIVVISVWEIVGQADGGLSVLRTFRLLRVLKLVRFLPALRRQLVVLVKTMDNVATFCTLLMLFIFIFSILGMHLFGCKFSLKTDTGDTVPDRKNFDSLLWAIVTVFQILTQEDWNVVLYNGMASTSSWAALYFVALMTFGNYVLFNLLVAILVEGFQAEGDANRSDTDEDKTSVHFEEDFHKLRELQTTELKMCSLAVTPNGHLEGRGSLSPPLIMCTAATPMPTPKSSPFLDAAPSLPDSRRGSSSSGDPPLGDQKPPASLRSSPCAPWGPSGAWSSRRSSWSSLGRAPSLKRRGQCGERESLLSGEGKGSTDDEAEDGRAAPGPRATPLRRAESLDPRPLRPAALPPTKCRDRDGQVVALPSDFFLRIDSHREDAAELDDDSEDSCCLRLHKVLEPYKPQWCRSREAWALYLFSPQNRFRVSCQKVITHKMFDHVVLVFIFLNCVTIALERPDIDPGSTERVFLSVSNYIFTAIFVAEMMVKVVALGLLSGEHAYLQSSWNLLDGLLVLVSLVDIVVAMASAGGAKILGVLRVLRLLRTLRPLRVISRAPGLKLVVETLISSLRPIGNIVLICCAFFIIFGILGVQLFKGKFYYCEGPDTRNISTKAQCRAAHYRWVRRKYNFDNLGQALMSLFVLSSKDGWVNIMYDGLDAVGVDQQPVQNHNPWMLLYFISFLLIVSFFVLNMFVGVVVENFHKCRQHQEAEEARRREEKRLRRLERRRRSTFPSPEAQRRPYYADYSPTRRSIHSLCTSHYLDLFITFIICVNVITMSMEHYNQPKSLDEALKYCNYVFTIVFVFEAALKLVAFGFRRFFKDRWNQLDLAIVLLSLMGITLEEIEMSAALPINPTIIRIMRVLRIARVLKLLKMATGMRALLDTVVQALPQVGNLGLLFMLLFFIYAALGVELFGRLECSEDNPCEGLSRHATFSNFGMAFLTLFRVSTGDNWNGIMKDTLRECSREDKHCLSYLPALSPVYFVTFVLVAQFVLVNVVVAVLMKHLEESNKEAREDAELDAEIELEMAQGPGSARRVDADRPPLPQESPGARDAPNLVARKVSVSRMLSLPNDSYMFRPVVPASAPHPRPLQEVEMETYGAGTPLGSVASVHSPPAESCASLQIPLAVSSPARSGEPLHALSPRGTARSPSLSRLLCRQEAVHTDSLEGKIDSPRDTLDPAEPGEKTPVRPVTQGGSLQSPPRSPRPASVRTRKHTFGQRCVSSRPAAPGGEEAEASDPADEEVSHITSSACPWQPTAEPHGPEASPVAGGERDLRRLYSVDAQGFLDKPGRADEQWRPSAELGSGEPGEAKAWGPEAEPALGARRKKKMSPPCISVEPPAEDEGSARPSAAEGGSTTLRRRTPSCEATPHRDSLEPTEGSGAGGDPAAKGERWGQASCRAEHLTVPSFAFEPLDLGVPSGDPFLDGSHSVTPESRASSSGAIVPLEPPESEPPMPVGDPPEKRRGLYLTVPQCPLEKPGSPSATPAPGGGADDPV

T1 sequence (O43497 whole entry): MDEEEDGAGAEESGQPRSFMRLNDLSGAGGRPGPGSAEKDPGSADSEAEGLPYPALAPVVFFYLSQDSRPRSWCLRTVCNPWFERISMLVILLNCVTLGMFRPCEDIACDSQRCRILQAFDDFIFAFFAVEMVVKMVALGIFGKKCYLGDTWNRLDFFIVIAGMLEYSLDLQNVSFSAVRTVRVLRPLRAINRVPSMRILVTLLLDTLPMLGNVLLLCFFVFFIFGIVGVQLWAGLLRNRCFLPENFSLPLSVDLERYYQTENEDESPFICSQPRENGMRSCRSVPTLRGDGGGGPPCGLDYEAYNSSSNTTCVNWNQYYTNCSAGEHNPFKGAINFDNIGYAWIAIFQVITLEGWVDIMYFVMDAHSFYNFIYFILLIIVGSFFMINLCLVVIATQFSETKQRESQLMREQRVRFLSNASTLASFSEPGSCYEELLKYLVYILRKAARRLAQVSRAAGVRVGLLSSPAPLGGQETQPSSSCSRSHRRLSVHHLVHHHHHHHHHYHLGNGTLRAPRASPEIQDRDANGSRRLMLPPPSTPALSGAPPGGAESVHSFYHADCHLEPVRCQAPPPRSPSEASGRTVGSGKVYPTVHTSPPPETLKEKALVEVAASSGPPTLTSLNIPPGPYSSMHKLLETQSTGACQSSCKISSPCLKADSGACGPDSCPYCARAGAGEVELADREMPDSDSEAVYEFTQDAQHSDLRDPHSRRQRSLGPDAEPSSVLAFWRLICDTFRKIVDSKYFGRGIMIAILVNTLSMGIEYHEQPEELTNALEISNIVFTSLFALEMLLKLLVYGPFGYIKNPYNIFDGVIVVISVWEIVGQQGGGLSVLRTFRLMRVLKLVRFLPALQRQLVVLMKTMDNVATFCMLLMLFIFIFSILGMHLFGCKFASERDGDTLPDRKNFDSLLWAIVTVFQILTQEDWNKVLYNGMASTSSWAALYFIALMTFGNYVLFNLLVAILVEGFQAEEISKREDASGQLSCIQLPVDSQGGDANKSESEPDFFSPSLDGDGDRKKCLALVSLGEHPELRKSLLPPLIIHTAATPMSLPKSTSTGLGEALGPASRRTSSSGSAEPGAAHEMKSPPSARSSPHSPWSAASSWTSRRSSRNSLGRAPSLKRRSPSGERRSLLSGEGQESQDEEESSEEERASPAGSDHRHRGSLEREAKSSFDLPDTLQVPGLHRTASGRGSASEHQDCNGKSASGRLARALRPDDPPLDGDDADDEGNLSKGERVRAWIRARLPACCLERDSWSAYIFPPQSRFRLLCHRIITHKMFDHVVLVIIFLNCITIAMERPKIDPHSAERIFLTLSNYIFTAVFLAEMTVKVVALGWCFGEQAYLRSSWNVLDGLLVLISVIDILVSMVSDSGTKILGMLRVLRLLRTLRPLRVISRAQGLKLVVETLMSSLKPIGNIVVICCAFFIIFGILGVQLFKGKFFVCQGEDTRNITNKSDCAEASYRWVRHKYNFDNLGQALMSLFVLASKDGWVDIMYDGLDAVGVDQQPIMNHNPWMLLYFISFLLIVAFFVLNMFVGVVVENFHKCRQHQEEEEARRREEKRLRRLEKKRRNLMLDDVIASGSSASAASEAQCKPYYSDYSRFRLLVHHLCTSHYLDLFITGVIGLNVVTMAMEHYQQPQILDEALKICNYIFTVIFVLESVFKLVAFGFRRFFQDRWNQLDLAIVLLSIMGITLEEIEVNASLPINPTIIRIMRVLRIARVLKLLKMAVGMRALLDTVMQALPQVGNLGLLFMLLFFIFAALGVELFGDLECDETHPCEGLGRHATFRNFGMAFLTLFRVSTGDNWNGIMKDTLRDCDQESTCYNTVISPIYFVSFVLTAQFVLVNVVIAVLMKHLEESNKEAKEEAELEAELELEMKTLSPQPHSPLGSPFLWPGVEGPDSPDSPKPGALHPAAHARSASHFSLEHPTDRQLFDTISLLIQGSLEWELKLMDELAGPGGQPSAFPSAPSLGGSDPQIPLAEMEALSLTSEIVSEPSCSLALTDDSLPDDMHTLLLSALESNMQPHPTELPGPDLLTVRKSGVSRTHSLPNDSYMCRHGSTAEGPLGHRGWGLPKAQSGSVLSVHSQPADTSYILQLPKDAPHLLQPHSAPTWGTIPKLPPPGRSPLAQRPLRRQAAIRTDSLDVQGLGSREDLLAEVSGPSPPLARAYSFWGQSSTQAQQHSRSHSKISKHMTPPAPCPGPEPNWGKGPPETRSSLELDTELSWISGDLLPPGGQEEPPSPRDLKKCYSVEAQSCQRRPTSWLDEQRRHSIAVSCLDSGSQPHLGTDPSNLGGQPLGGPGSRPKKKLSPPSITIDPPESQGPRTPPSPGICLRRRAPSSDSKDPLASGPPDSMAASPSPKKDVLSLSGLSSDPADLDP

Structure (SMILES)	IC50 [1] [nM]	IC50 [2] [nM]
CCCNC(=O)NC1(CN2CCC(CNC(=O)c3cc(C(F)(F)F)cc(C(F)(F)F)c3)CC2)CCCC1 [Compound 13, N-((1-((1-(3-propylureido)cyclopentyl)methyl)piperidin-4-yl)methyl)-3,5-bis(trifluoromethyl)benzamide]	630	1870
O=C(NC1CCCCC1)NC1(CN2CCC(CNC(=O)c3cc(C(F)(F)F)cc(C(F)(F)F)c3)CC2)CCCC1 [Compound 14, N-((1-((1-(3-cyclohexylureido)cyclopentyl)methyl)piperidin-4-yl)methyl)-3,5-bis(trifluoromethyl)benzamide]	< 300	1170
CC(C)NC(=O)NC1(CN2CCC(CNC(=O)c3cc(C(F)(F)F)cc(C(F)(F)F)c3)CC2)CCCC1 [Compound 15, N-((1-((1-(3-isopropylureido)cyclopentyl)methyl)piperidin-4-yl)methyl)-3,5-bis(trifluoromethyl)benzamide]	1030	3040
CCOC(=O)NC1(CN2CCC(CNC(=O)c3cc(C(F)(F)F)cc(C(F)(F)F)c3)CC2)CCCC1 [Compound 17, ethyl 1-((4-((3,5-bis(trifluoromethyl)benzamido)methyl)piperidin-1-yl)methyl)cyclopentylcarbamate]	< 300	120
O=C(NCC1CCN(CCNS(=O)(=O)C2CC2)CC1)c1cc(C(F)(F)F)cc(C(F)(F)F)c1 [Compound 19, N-((1-(2-(cyclopropanesulfonamido)ethyl)piperidin-4-yl)methyl)-3,5-bis(trifluoromethyl)benzamide]	1740	740
CC(C)S(=O)(=O)NCCN1CCC(CNC(=O)c2cc(C(F)(F)F)cc(C(F)(F)F)c2)CC1 [Compound 20, N-((1-(2-(1-methylethylsulfonamido)ethyl)piperidin-4-yl)methyl)-3,5-bis(trifluoromethyl)benzamide]	< 300	400
O=C(NCC1CCN(CCNS(=O)(=O)C(F)(F)F)CC1)c1cc(C(F)(F)F)cc(C(F)(F)F)c1 [Compound 21, 3,5-bis(trifluoromethyl)-N-((1-(2-(trifluoromethylsulfonamido)ethyl)piperidin-4-yl)methyl)benzamide]	3660	590
CC(C)(C)OC(=O)NCCN1CCC(CNC(=O)c2cc(C(F)(F)F)cc(C(F)(F)F)c2)CC1 [Compound 35, tert-butyl 2-(4-((3,5-bis(trifluoromethyl)benzamido)methyl)piperidin-1-yl)ethylcarbamate]	410	160
CC(C)COC(=O)NCCN1CCC(CNC(=O)c2cc(C(F)(F)F)cc(C(F)(F)F)c2)CC1 [Compound 37, isobutyl 2-(4-((3,5-bis(trifluoromethyl)benzamido)methyl)piperidin-1-yl)ethylcarbamate]	< 300	170
CC(C)(C)OC(=O)NCCN1CCC(CNC(=O)c2cccc(C(F)(F)F)c2)CC1 [Compound 39, tert-butyl 2-(4-((3-(trifluoromethyl)benzamido)methyl)piperidin-1-yl)ethylcarbamate]	1310	1170
CC(C)(C)OC(=O)NCCN1CCC(CNC(=O)c2cc(Cl)cc(C(F)(F)F)c2)CC1 [Compound 40, tert-butyl 2-(4-((3-chloro-5-(trifluoromethyl)benzamido)methyl)piperidin-1-yl)ethylcarbamate]	< 300	160
CC(C)(C)OC(=O)NCCN1CCC(CNC(=O)c2cc(Br)cc(C(F)(F)F)c2)CC1 [Compound 41, tert-butyl 2-(4-((3-bromo-5-(trifluoromethyl)benzamido)methyl)piperidin-1-yl)ethylcarbamate]	< 300	150
CC(C)(C)OC(=O)NCCN1CCC(CNC(=O)c2cc(Cl)cc(Cl)c2)CC1 [Compound 43, tert-butyl 2-(4-((3,5-dichlorobenzamido)methyl)piperidin-1-yl)ethylcarbamate]	< 300	150
CC(C)(C)OC(=O)NCCN1CCC(CNC(=O)c2cc(F)cc(F)c2)CC1 [Compound 47, tert-butyl 2-(4-((3,5-difluorobenzamido)methyl)piperidin-1-yl)ethylcarbamate]	3110	880
CC(C)(C)OC(=O)NCCN1CCC(CNC(=O)c2cccc(Cl)c2)CC1 [Compound 48, tert-butyl 2-(4-((3-chlorobenzamido)methyl)piperidin-1-yl)ethylcarbamate]	1570	790
O=C(NCC1CCN(C(=O)[C@@H]2CCCCN2)CC1)c1cc(C(F)(F)F)cc(C(F)(F)F)c1 [Compound 88, (S)-N-((1-(piperidine-2-carbonyl)piperidin-4-yl)methyl)-3,5-bis(trifluoromethyl)benzamide]	> 10000	> 10000

Now from value to molecule:

IC50 [1] [nM]	IC50 [2] [nM]	Structure (SMILES)
480	1660	CC(C)(C)NC(=O)NC1(CN2CCC(CNC(=O)c3cc(C(F)(F)F)cc(C(F)(F)F)c3)CC2)CCCC1 [Compound 12, N-((1-((1-(3-tert-butylureido)cyclopentyl)methyl)piperidin-4-yl)methyl)-3,5-bis(trifluoromethyl)benzamide]
< 300	190	COC(=O)NC1(CN2CCC(CNC(=O)c3cc(C(F)(F)F)cc(C(F)(F)F)c3)CC2)CCCC1 [Compound 16, methyl 1-((4-((3,5-bis(trifluoromethyl)benzamido)methyl)piperidin-1-yl)methyl)cyclopentyl-carbamate]
< 300	80	CC(C)COC(=O)NC1(CN2CCC(CNC(=O)c3cc(C(F)(F)F)cc(C(F)(F)F)c3)CC2)CCCC1 [Compound 18, isobutyl 1-((4-((3,5-bis(trifluoromethyl)benzamido)methyl)piperidin-1-yl)methyl)cyclopentyl-carbamate]
4300	1700	CCOC(=O)NCCN1CCC(CNC(=O)c2cc(C(F)(F)F)cc(C(F)(F)F)c2)CC1 [Compound 36, ethyl 2-(4-((3,5-bis(trifluoromethyl)benzamido)methyl)piperidin-1-yl)ethylcarbamate]
1640	760	Cc1cc(C)cc(C(=O)NCC2CCN(CCNC(=O)OC(C)(C)C)CC2)c1 [Compound 42, tert-butyl 2-(4-((3,5-dimethylbenzamido)methyl)piperidin-1-yl)ethylcarbamate]
620	320	CC(C)(C)OC(=O)NCCN1CCC(CNC(=O)c2cccc(OC(F)(F)F)c2)CC1 [Compound 44, tert-butyl 2-(4-((3-(trifluoromethoxy)benzamido)methyl)piperidin-1-yl)ethylcarbamate]
340	7300	CC(C)(C)OC(=O)NCCN1CCC(CNC(=O)c2cc(C(C)(C)C)cc(C(C)(C)C)c2)CC1 [Compound 49, tert-butyl 2-(4-((3,5-di-tert-butylbenzamido)methyl)piperidin-1-yl)ethylcarbamate]
1050	> 10000	CC(C)(C)OC(=O)NCCN1CCC(CNC(=O)c2ccc(Oc3ccccc3)cc2)CC1 [Compound 57, tert-buyl 2-(4-((4-phenoxybenzamido)methyl)piperidin-1-yl)ethylcarbamate]
